16 compounds from US7488736B2, “Thienopyridinone compounds and methods of treatment” (Epix Delaware, Inc., priority 2004, dated 2009) can be followed below.

For one experiment, the target named is h 5-HT4e Receptor (Homo sapiens, UniProt Q13639). Description: h 5-HT4e receptor binding affinity assay.
Experiment [1] deals with rats. Description: Reversal of the scopolamine-induced deficit of Morris water maze performance. It is filed as in vivo, rat. The source says:
Reversal of the Scopolamine-Induced Deficit of Water Maze Performance in Rats
The Morris Water Maze test is commonly used to study hippocampal-dependent spatial memory acquisition. It consists of a water pool with a hidden escape platform where the rats must learn the location of the platform using either contextual or local cues. […] Lesions of the hippocampus or its cholinergic input impair performance (e.g., by scopolamine) by inducing a performance deficit (latency or time to reach the platform location) in this test without affecting the speed of swimming or other general behaviors in the test animals.

In experiment [2] the test system is rats. Description: Spontaneous alternation task (cross maze), spatial working memory. Particulars: 5 mg/kg i.p., 12 minutes on cross maze. Further details: number of arm entries: unit not given here. It is filed as in vivo, rat. The source says:
Effect of Compound 23 on Spatial Working Memory in the Spontaneous Alternation Task Performance in Rats
Rats have an innate tendency to explore their environment in a systematic way. That is, if a rat chose a certain arm on the first trial in a maze, there is high probability that it will choose a different arm on the second trial. […] The performance in the spontaneous alternation test is highly dependent on spatial working memory capacity and rats with compromised “working memory” cannot retain information regarding places just visited in memory; therefore they show decreased spontaneous alternation. In this study, rats were tested for spontaneous alternation performance on the cross maze. Rats were allowed to explore the maze freely for 12 minutes. An alternation was recorded if a rat entered all four arms within a series of four consecutive entries. Chance performance is 22.5% with this measure.

[3] abbreviates: scopolamine 1 mg/kg i.p., compound at both 15 mg/kg and 30 mg/kg p.o.

Where a name gives a salt, the structure may show the parent alone.

Sequence of h 5-HT4e Receptor (Q13639 1-378 isoform Q13639-5): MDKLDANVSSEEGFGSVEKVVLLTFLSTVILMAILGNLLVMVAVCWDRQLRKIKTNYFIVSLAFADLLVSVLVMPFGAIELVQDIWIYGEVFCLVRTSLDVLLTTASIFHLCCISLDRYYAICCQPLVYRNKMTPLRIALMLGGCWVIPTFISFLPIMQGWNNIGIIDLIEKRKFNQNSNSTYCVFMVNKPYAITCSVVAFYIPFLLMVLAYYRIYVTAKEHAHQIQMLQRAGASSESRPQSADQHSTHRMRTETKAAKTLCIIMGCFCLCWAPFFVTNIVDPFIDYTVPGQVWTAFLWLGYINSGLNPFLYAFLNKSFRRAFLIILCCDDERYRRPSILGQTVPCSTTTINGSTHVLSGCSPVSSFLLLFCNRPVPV

Consider `CC(C)Cn1c(=O)c(C(=O)NCCCN2CCCCC2)c(O)c2ccsc21` [Compound 1, 6,7-Dihydro-4-hydroxy-7-isobutyl-6-oxo-N-(3-(piperidin-1-yl)propyl)thieno[2,3-b]pyridine-5-carboxamide hydrochloride salt], for which, on h 5-HT4e Receptor, the Ki (as a rule, a measure of affinity in units of concentration, obtained from inhibition or displacement) stood at 0.12 µM.
As for `CC(C)n1c(=O)c(C(=O)NCCCN2CCC(F)(F)CC2)c(O)c2ccsc21` [Compound 11, N-(3-(4,4-Difluoropiperidin-1-yl)propyl)-6,7-dihydro-4-hydroxy-7-isopropyl-6-oxothieno[2,3-b]pyridine-5-carboxamide hydrochloride salt], the Ki at h 5-HT4e Receptor came to 0.22 µM.
Compound `CC(C)n1c(=O)c(C(=O)NCCCN2[C@H](C)CCC[C@@H]2C)c(O)c2ccsc21` [Compound 13, 6,7-Dihydro-N-(3-((2R,6S)-2,6-dimethylpiperidin-1-yl)propyl)-4-hydroxy-7-isopropyl-6-oxothieno[2,3-b]pyridine-5-carboxamide hydrochloride salt] returned a Ki on h 5-HT4e Receptor of 0.38 µM.
In turn, `CC1CCN(CCCNC(=O)c2c(O)c3ccsc3n(C(C)C)c2=O)CC1` [Compound 8, 6,7-Dihydro-4-hydroxy-7-isopropyl-N-(3-(4-methylpiperidin-1-yl)propyl)-6-oxothieno[2,3-b]pyridine-5-carboxamide hydrochloride salt] returned a Ki on h 5-HT4e Receptor of 0.065 µM.
Take `CC(C)n1c(=O)c(C(=O)NCCCN2CCCCC2)c([O-])c2ccsc21.[K+]` [Compound 23, 6,7-Dihydro-4-hydroxy-7-isopropyl-6-oxo-N-(3-(piperidin-1-yl)propyl)thieno[2,3-b]pyridine-5-carboxamide potassium salt]: in the experiment on rats [1] (setting [3]), the “decrease in path length to reach the platform” value was 35-55% and the “decrease in time to reach the platform” value was 25-30%. For the same compound, the “number of arm entries” value with rats [2] is 30. For the same compound, the mean alternation score in the experiment on rats [2] (chance performance 22.5%) was 58%±3%.
At h 5-HT4e Receptor, `CCn1c(=O)c(C(=O)NCCCN2CCC(C)CC2)c(O)c2ccsc21` [Compound 4, 6,7-Dihydro-7-ethyl-4-hydroxy-N-(3-(4-methylpiperidin-1-yl)propyl)-6-oxothieno[2,3-b]pyridine-5-carboxamide hydrochloride salt] had a Ki of 0.02 µM.
The compound `CC(C)n1c(=O)c(C(=O)NCCCN2CCC(C(F)(F)F)CC2)c(O)c2ccsc21` [Compound 9, 6,7-Dihydro-4-hydroxy-7-isopropyl-6-oxo-N-(3-(4-(trifluoromethyl)piperidin-1-yl)propyl)thieno[2,3-b]pyridine-5-carboxamide hydrochloride salt] came in with a Ki on h 5-HT4e Receptor of 0.05 µM.
As to `CN1[C@@H]2C[C@@H](OC(=O)[C@H](CO)c3ccccc3)C[C@H]1[C@@H]1O[C@@H]12` [scopolamine, reference compound], the “increase in latency and path length to find the platform compared with vehicle treated rats” value with rats [1] (scopolamine pretreatment 1 mg/kg i.p.) is roughly 5 fold.
On h 5-HT4e Receptor, `COC(=O)C1CCN(CCCNC(=O)c2c(O)c3ccsc3n(C(C)C)c2=O)CC1` [Compound 10, 6,7-Dihydro-4-hydroxy-7-isopropyl-6-oxo-N-(3-(4-(methoxycarbonyl)piperidin-1-yl)propyl)thieno[2,3-b]pyridine-5-carboxamide hydrochloride salt] gave a Ki of 0.04 µM.
`CCC1CCN(CCCNC(=O)c2c(O)c3ccsc3n(CC)c2=O)CC1` [Compound 5, 6,7-Dihydro-7-ethyl-N-(3-(4-ethylpiperidin-1-yl)propyl)-4-hydroxy-6-oxothieno[2,3-b]pyridine-5-carboxamide hydrochloride salt] showed a Ki at h 5-HT4e Receptor of 0.026 µM.
`CC(C)n1c(=O)c(C(=O)NCCCN2CCCC2)c(O)c2ccsc21` [Compound 6, 6,7-Dihydro-4-hydroxy-7-isopropyl-6-oxo-N-(3-(pyrrolidin-1-yl)propyl)thieno-[2,3-b]pyridine-5-carboxamide hydrochloride salt] showed a Ki on h 5-HT4e Receptor of 0.035 µM.
In turn, `CC(C)n1c(=O)c(C(=O)NCCCN2CCC(C)(C)CC2)c(O)c2ccsc21` [Compound 12, 6,7-Dihydro-N-(3-(4,4-dimethylpiperidin-1-yl)propyl)-4-hydroxy-7-isopropyl-6-oxothieno[2,3-b]pyridine-5-carboxamide hydrochloride salt] yielded an inhibition constant (Ki) on h 5-HT4e Receptor of 0.2 µM.
On h 5-HT4e Receptor, `COc1c(C(=O)NCCCN2CCCCC2)c(=O)n(C(C)C)c2sccc12` [Compound 16, 6,7-Dihydro-7-isopropyl-4-methoxy-6-oxo-N-(3-(piperidin-1-yl)propyl)thieno[2,3-b]pyridine-5-carboxamide] yielded a Ki of 0.031 µM.
The same measure, in the same setting: the figure for `Cc1sc2c(c1C)c(O)c(C(=O)NCCCN1CCCCC1)c(=O)n2C(C)C` [Compound 14, 6,7-Dihydro-2,3-dimethyl-4-hydroxy-7-isopropyl-6-oxo-N-(3-(piperidin-1-yl)propyl)thieno-[2,3-b]pyridine-5-carboxamide hydrochloride salt] is 0.14 µM; for `CCn1c(=O)c(C(=O)NCCCN2CCCCC2)c(O)c2ccsc21` [Compound 3, 6,7-Dihydro-7-ethyl-4-hydroxy-6-oxo-N-(3-(piperidin-1-yl)propyl)thieno[2,3-b]pyridine-5-carboxamide hydrochloride salt] it is 0.036 µM.
Still for that read-out and setting: the figure for `CCCn1c(=O)c(C(=O)NCCCN2CCC(C)CC2)c(O)c2ccsc21` [Compound 2, 6,7-Dihydro-4-hydroxy-N-(3-(4-methylpiperidin-1-yl)propyl)-6-oxo-7-propylthieno[2,3-b]pyridine-5-carboxamide hydrochloride salt] is 0.16 µM.
